Article PMC6950821, “Bioactivity Evaluation of a Novel Formulated Curcumin” (Nutrients, 2019)
Where two headings read alike, the source gives them in different places.

Experiments:
Hep3B cells [1] = test: Cell cycle analysis (PI, flow cytometry), sub-G1 population; type: cell-based, human; conditions: 48 h, 30 μM conventional curcumin, 10 μM sorafenib
Method: After treatment, the cells were collected by trypsinization and fixed in precooled 70% ethanol overnight. The cells were then incubated with PI in the presence of RNase A. The DNA content was analyzed by a FACSCalibur, and the data were analyzed by Flowjo software. The percentage of cells in the sub-G1 was used to indicate the apoptosis rate.
(§1) formulated curcumin on HCC cell lines. (A) Huh7 cells were treated with various concentrations of
(§2) Cell viability was determined
(§3) cells were examined by flow cytometry.
(§4) were quantified using WinMDI 2.8 software.
(§5) compared to the control group.
(§6) μM of conventional curcumin for 48 h.
(§7) Quantification of cleavage-caspase-3
are representative of three independent experiments.
tetrazolium bromide; SEM, standard error of the mean.

LC3-II = test: Western blot of LC3-II, Hep3B; type: cell-based, human; conditions: 10 μM sorafenib, 30 μM conventional curcumin, 48 h
Method: (§8) The cells were incubated with various treatment (conventional and formulated curcumin or combination of sorafenib and conventional and formulated curcumin), and then collected for western blot. Aliquots of cell lysates containing 20–50 μg of protein were separated by SDS-polyacrylamide gel electrophoresis (SDS-PAGE), transferred onto a polyvinylidene difluoride (PVDF) membrane and detected using specific primary and secondary antibodies. The protein bands were visualized by an enhanced chemiluminescence (ECL) detection kit (Immobilon^TM western, Millipore). The membranes were reprobed for β-actin as a loading control. All western blots were carried out at least three times for each experiment. The data were normalized to β-actin. The following primary antibodies were used: anti-extracellular regulated protein kinases (ERK), anti-caspase-3, anti-poly (ADP-ribose) polymerase (PARP) (all from Cell Signaling Technology) and anti-aurora kinase A (AURKA) (BD Biosciences). All antibodies were used at a 1:1000 dilution.
as §1, §2, §3, §4, §5, §6, §7
(§9) are representative of three independent experiments. […]

PLC5 cells = test: MTT viability assay, PLC5; type: cell-based; conditions: 72 h (Figure 6C)
Method: (§10) Cells were seeded into a 96-well plate (1500–2000 cells/well) overnight and then treated with curcumin and the formulated curcumin respectively for 0, 24, 48, 72, 96 and 120 h. After treatment, […] 3-(4,5-cimethylthiazol-2-yl)-2,5-diphenyl tetrazolium bromide (MTT) was added to each well and cultured for 2 h at 37 °C. After incubation, the media were removed from the wells. The formazan crystals formed were then solubilized in DMSO at room temperature for 10 minutes, and then the absorbance was measured in a multimode microplate reader at 570 nm.

Mahlavu cells = test: MTT viability assay, Mahlavu; type: cell-based; conditions: 72 h (Figure 6B)
Method: as §10

Huh7 cells [2] = test: Annexin V and PI double staining by flow cytometry; type: cell-based, human; conditions: Huh7, 10–60 μM, 24 h, dose-dependent
Method: The Huh7 were incubated with various concentrations of conventional and formulated curcumin for 24 h. Annexin V/PI staining was performed to quantify cell apoptosis using an Annexin V-fluorescein isothiocyanate (FITC) Apoptosis Detection Kit (BioVision, Inc., Milpitas, CA, USA) according to the manufacturer’s protocol. Annexin V-FITC was then added followed by incubation for 15 minutes in the dark in a 100 µL cell suspension. PI was then spiked into 400 µL Annexin V binding buffer and added immediately to the cell suspension, and subsequently analyzed on a FACScan flow cytometer (BD Biosciences, USA).

[3] = rat plasma, oral, cited from earlier work
Huh7 cells [4] = test: MTT proliferation and viability assay, Huh7; type: cell-based, human; conditions: for IC50: Homo sapiens; for cell viability: dose-dependent
Method: (§11) After incubation, the media were removed from the wells.

[5] = Pharmacokinetic study after oral gavage, curcumin in rat plasma by LC/MS/MS; type: in vivo, male Sprague Dawley (SD) rats; conditions: 500 mg/kg, n = 5
Method: All animal treatment procedures followed the Guide for the Care and Use of Laboratory Animals (National Institutes of Health (NIH) publication, 85–23, revised 1996) as well as the Animal research: Reporting in vivo experiments (ARRIVE) guidelines, and were approved by the Animal Research Committee at National Yang-Ming University, Taipei, Taiwan, under Institutional Animal Care and Use Committees (IACUC) approval no: 990103. All surgeries and experimental procedure were carried out under anesthesia with all efforts to minimize animal suffering. Twelve male Sprague Dawley (SD) rats (270 ± 15 g body weight) were obtained from Bio-Lasco, Taipei, Taiwan. Water was provided ad libitum, regardless of administration route. All animals were acclimatized and quarantined in quarantine room of the Rosetta animal facility for about 1 week, and then transferred to feeding room. The humidity and temperature were well controlled as 30%–70% and 19–25 °C. The light and dark cycle was set as 12 h: 12 h. Food and drinking water were allowed ad libitum during housing. Rats were randomly divided into two groups treated with curcumin and formulated curcumin. […] A 300 μL blood sample was collected from the tail vein into a tube rinsed with heparin at 0, 0.25, 0.5, 1, 1.5, 2, 4, 6 h after oral administration. Plasma was obtained by centrifuging the blood sample at 4000 rpm for 10 minutes at 4 °C. The 10 μL plasma was mixed with 50 μL of the internal standard solution containing 0.1 ng/µL of agomelatine. The samples were vortexed and centrifuged at 13,000 rpm for 5 minutes. The 50 µL of supernatant was transferred to the 1.5 mL tube contained 50 µL solution of 25% acetonitrile and 0.1% acetic acid. After that, 50 μL of the solution was injected onto LC-MS system. Curcumin concentrations in the samples were determined by positive ion electrospray tandem mass spectrometry using multiple reaction monitoring (MRM). Separation of curcumin was conducted on a Cosmosil column (5C18-MS-IIPacked column, 120 Å, 5 µm, 4.6 mm I.D. x 150 mm; NACALAI TESQUE, Inc., Japan) with a mobile phase of acetonitrile-water-formic acid. […] Pharmacokinetic analysis was calculated using a non-compartmental model with the Phoenix WinNonlin® (Version 8.0) software. The area under the drug concentration-time curve (AUC) was used to measure the total amount of curcumin reaching the systemic circulation. The relative oral bioavailability (BA) of curcumin was calculated according to the following equation: […] The pharmacokinetic results were represented as the mean ± SD. Statistical analysis was performed by t test (SPSS version 10.0) to compare the differences between groups. The level of significance was set at p < 0.05.

Huh7 cells [6] = test: JC-1 mitochondrial membrane potential assay; type: cell-based, human; conditions: Huh7, JC-1, 10, 30, and 60 µM, concentration-dependent
Method: We employed 5, 5’, 6, 6’-tetrachloro-l, 1’, 3, 3’-tetraethylbenzimidazolcarbocyanine iodide (JC-1), which was obtained from Cayman Chemical Co., to analyze the mitochondrial membrane potential. The cells were seeded in 96-well black plates at a density of 7000 cells/well and cultured overnight. After treatment, JC-1 staining solution was added to each well and incubated at 37 °C for 15–30 minutes in the dark. The plates were obtained by centrifuged at 400 × g at room temperature for 5 minutes, and the supernatant was discarded. Then, JC-1 assay buffer was added to each well, followed by centrifugation at 400 × g at room temperature for 5 minutes, after which the supernatant was discarded. Finally, JC-1 assay buffer was added again to each well for fluorescent analysis using a fluorescent plate reader.

caspase-3 [7] = test: Western blot of cleaved caspase-3, Hep3B; type: cell-based, human; conditions: 10 μM sorafenib, 30 μM conventional curcumin, 48 h
Method: as §8, §1, §2, §3, §4, §5, §6, §7, §9

Hep3B cells [8] = test: MTT viability assay, Hep3B; type: cell-based, human; conditions: dose-dependent
Method: as §11
Supplementary Figure 6. Effect of sorafenib with or without curcumin/formulated curcumin on Mahlavu and Hep3B cell viability. (A) Mahlavu and (B) Hep3B cells were treated with […]
(conventional)/formulated curcumin for 48 hours. Percentage of inhibition on Mahlavu and Hep3B cells was measured by MTT assay. Data are presented as means ± SEM. Results are representative of three independent experiments.

caspase-3 [9] = test: Western blot of cleaved caspase-3, Huh7; type: cell-based, human; conditions: dose-dependent
Method: as §8

ERK = test: Western blot of ERK phosphorylation, Huh7; type: cell-based, human; conditions: Huh7, 10–60 μM, 48 h
Method: as §8

[10] = Dissolution test, USP 41 basket method, 1% SDS medium; type: physicochemical; conditions: 37 °C
Method: A dissolution test was conducted by the US Pharmacopeia 41 basket method (apparatus 1) using a dissolution tester (708-DS Dissolution apparatus, Agilent, USA). The samples of 89 mg conventional curcumin (equivalent to 72 mg curcumin) and 2180 mg formulated curcumin (equivalent to 72 mg curcumin) were placed into 900 mL of dissolution medium containing 1% sodium dodecyl sulfate (SDS) at 37 °C ± 0.5 °C, under a stirring speed of 100 ± 2 rpm. A 5 mL sample was withdrawn at each time interval (5, 10, 15, 20, 30, 45, and 60 minutes) and was mixed and filtered through a 0.45-µm pore membrane. Then, 2 mL of filtrate was diluted with mobile phase so that the total volume became 10 mL and subjected to HPLC analysis (Agilent 1260, USA). The HPLC program consisted of a mobile phase of tetrahydrofuran: 0.1% citric acid solution (4:6). The column used was 4.6 mm × 20 cm with 5-µm packing L1. The flow rate was 1 mL/minute, and the injection volume was 20 µL using a 420 nm wavelength detector. The percentages of curcumin dissolved from the conventional curcumin and pellets (formulated curcumin) into the medium were calculated and compared.

Aurora-A = test: Western blot of Aurora-A, Huh7; type: cell-based, human; conditions: Huh7, 0–60 μM, 48 h
Method: as §8

[11] = humans; 20 mg of piperine given concomitantly with 2 g of curcumin; cited from earlier work
[12] = rats; piperine given concomitantly with curcumin; cited from earlier work
[13] = 50 mg/kg, n = 5, ref [6] of supplement
[14] = 340 mg/kg, n = 3, ref [5] of supplement
[15] = 500 mg/kg, n = 6, ref [7] of supplement

COc1cc(/C=C/C(=O)CC(=O)/C=C/c2ccc(O)c(OC)c2)ccc1O [conventional curcumin, curcumin]
apoptosis rate (sub-G1 population) (Hep3B cells [1]): 13.5%
LC3-II (LC3-II): significantly induced accumulation
IC50 (PLC5 cells): 82.5 µM
IC50 (Mahlavu cells): 35.4 µM
percentage of cells undergoing early apoptosis (annexin V+/PI–) and late apoptosis (annexin V+/PI+) (Huh7 cells [2]): increased
AUC0-t [3, 13]: 8.76 ng·h/mL
Cmax [3, 13]: 4.07 ± 0.56 ng/mL
Tmax [3, 13]: 30 min
AUC0-t [3, 14]: 80 ng·h/mL
Cmax [3, 14]: 2.39 ± 1.66 ng/mL
Tmax [3, 14]: 30 min
AUC0-t [3, 15]: 60 ng·h/mL
Cmax [3, 15]: 60 ± 10 ng/mL
Tmax [3, 15]: 42 ± 5.4 min
IC50 (Huh7 cells [4]; Huh-7, 24 h, 24 h (Supplementary Figure S4)): ~90 µM
IC50 (Huh7 cells [4]; Huh-7, 48 h, 48 h (Supplementary Figure S4)): ~90 µM
IC50 (Huh7 cells [4]; Huh-7, 72 h, 72 h (Figure 6A)): 53.3 µM
IC50 (Huh7 cells [4]; Huh-7, 72 h, 72 h (Supplementary Figure S4)): ~60 µM
IC50 (Huh7 cells [4]; Huh-7, 96 h, 96 h (Supplementary Figure S4)): ~45 µM
IC50 (Huh7 cells [4]; Huh-7, 120 h, 120 h (Supplementary Figure S4)): ~30 µM
cell viability (Huh7 cells [4]): inhibited cell viability
AUC0-t/Dose [5]: 0.0022 ± 0.0024
AUC0-t ([5]; male, Sprague Dawley): 1.1 ± 1.2 ng·h/mL
Cmax ([5]; male, Sprague Dawley): 0.704 ± 0.272 ng/mL
Tmax ([5]; male, Sprague Dawley): 75 ± 49.8 min
mitochondrial membrane potential (ΔΨm) (Huh7 cells [6]): significantly induced mitochondrial membrane potential breakdown
levels of cleaved caspase-3 proteins (caspase-3 [7]): increased
cell viability (Hep3B cells [8]): inhibited cell viability
caspase-3 activity (cleaved form) (caspase-3 [9]): increased
ERK phosphorylation (ERK): down-regulation
dissolution rate ([10]; 0 minutes): 0.00%
dissolution rate ([10]; 5 minutes): 9.80%
dissolution rate ([10]; 10 minutes): 13.60%
dissolution rate ([10]; 15 minutes): 14.05%
dissolution rate ([10]; 20 minutes): 17.28%
dissolution rate ([10]; 30 minutes): 19.41%
dissolution rate ([10]; 45 minutes): 24.06%
level of Aurora-A (Aurora-A): significant decrease

O=C(/C=C/C=C/c1ccc2c(c1)OCO2)N1CCCCC1 [piperine]
increase of serum curcumin [11]: 20 times
increase of serum curcumin [12]: 1.56 times

CNC(=O)c1cc(Oc2ccc(NC(=O)Nc3ccc(Cl)c(C(F)(F)F)c3)cc2)ccn1 [sorafenib]
apoptosis rate (sub-G1 population) (Hep3B cells [1]): 10.9%
cell viability (Huh7 cells [4]): inhibited cell viability
levels of cleaved caspase-3 proteins (caspase-3 [7]): increased
cell viability (Hep3B cells [8]): inhibited cell viability
